Earlier results on 1 compound are cited in PMC6422671 (British Journal of Clinical Pharmacology, 2019).

The test system of the data set is CYP3A4. Set-up: method as in unpublished data. The settings on record: in vitro; ref unpublished data; cited from earlier work.

For `C[C@@H](N)c1cc(Cl)ccc1Cn1c(=S)[nH]c(=O)c2[nH]ccc21` [AZD4831], the “involvement of CYP3A4 in metabolism” value is reported as “involved in the metabolism”.
